The test system of the test is HT29 intrarenal xenograft, nude mice, tumor weight change. Put plainly: NCI In Vivo Anticancer Drug Screen. Data for tumor model HT29;CX-1 Human Adenocarcinoma (MER+) (intrarenal inoculation) in NU/NU BALB/C (nude) mice. Conditions: endpoint: mean tumor weight change, higher = larger tumour. As for the experimental part:
The antitumor activity of compounds was measured in mice bearing transplantable tumors. Survival or tumor size were measured and the results are expressed as the measurement made in the treated group (T) divided by the measurement made in the vehicle treated control group (C). The tumor model used in this assay is HT29;CX-1 Human Adenocarcinoma (MER+) (intrarenal inoculation) in NU/NU BALB/C (nude) mice

The mark [1] stands for this setting: dose: 50.0 mg/kg/injection, schedule: Q01DX010 (sc), vehicle: saline with Tween-80.
Where [2] appears, read: dose: 100.0 mg/kg/injection, schedule: Q01DX010 (sc), vehicle: saline with Tween-80.
Where [3] appears, read: dose: 400.0 mg/kg/injection, schedule: Q01DX010 (sc), vehicle: saline.
Where [4] appears, read: dose: 150.0 mg/kg/injection, schedule: Q04DX004 (ip), vehicle: saline.
The mark [5] stands for this setting: dose: 100.0 mg/kg/injection, schedule: Q01DX010 (sc), vehicle: saline.

“And” between values parts separate entries of the source, which are not always exact repeats. Identical values can stand only once. Results filed as inconclusive are left out.

As to `O=C1c2ccccc2C(=O)c2c1cn1c2Cc2ccccc2C1`, the T/C (dose: 37.5 mg/kg/injection, schedule: Q04DX004 (ip), vehicle: Klucel (hydroxypropylcellulose) (HPC)) is 908 % of control; the T/C (dose: 75.0 mg/kg/injection, schedule: Q04DX004 (ip), vehicle: Klucel (hydroxypropylcellulose) (HPC)) is 537 % of control; the T/C (dose: 150.0 mg/kg/injection, schedule: Q04DX004 (ip), vehicle: Klucel (hydroxypropylcellulose) (HPC)) was 753 % of control; the T/C (dose: 300.0 mg/kg/injection, schedule: Q04DX004 (ip), vehicle: Klucel (hydroxypropylcellulose) (HPC)) is 188 % of control; the T/C (dose: 600.0 mg/kg/injection, schedule: Q04DX004 (ip), vehicle: Klucel (hydroxypropylcellulose) (HPC)) was 450 % of control.

In the case of `c1ccc2c(c1)nnn1c3cnccc3nc21`, the T/C is, setting by setting: under setting [1], 246 % of control; under setting [2], 65 % of control.

Take `N[C@@H](Cc1ccc(N(CCCl)CCCl)cc1)C(=O)O`: the T/C is 28 % of control (dose: 1.0 mg/kg/injection, schedule: Q01DX010 (sc), vehicle: saline) and 3 % of control (dose: 2.0 mg/kg/injection, schedule: Q01DX010 (sc), vehicle: saline).

Turning to `COc1cc2cc(c1Cl)N(C)C(=O)C[C@H](OC(=O)[C@H](C)N(C)C(C)=O)[C@]1(C)O[C@H]1[C@H](C)[C@@H]1C[C@@](O)(NC(=O)O1)[C@H](OC)C=C/C=C(\C)C2`, the T/C by setting is: (dose: 25.0 micrograms/kg/injection, schedule: Q01DX010 (sc), vehicle: Klucel (hydroxypropylcellulose) (HPC)) 315 % of control; (dose: 50.0 micrograms/kg/injection, schedule: Q01DX010 (sc), vehicle: Klucel (hydroxypropylcellulose) (HPC)) 118 % of control and 310 % of control.

Consider `NC(Cc1ccc(N(CCCl)CCCl)cc1)C(=O)O` (stereo not given), for which the T/C is, setting by setting: (dose: 5.0 mg/kg/injection, schedule: Q04DX004 (sc), vehicle: saline) 46 % of control; (dose: 10.0 mg/kg/injection, schedule: Q04DX004 (sc), vehicle: saline) 106 % of control; (dose: 20.0 mg/kg/injection, schedule: Q04DX004 (sc), vehicle: saline) 47 % of control.

Regarding `CC(/C=C/c1ccccc1)=Nc1ccccc1`, the T/C by setting is: (dose: 1200.0 mg/kg/injection, schedule: Q04DX004 (sc), vehicle: saline with Tween-80) 46 % of control; (dose: 1800.0 mg/kg/injection, schedule: Q04DX004 (sc), vehicle: saline with Tween-80) 54 % of control.

For the compound `CNC1C(O)C(OC2C(N)CC(N)C(OC3OC(C(C)O)C(O)C(O)C3N)C2O)OCC1(C)O` (stereo not given), the T/C (dose: 50.0 mg/kg/injection, schedule: Q04DX004 (ip), vehicle: saline) was 102 % of control.

Regarding `COC(=O)[C@@]12OC[C@]34[C@H]([C@@H](O)[C@@H]1O)[C@@]1(C)CC(=O)C(O)=C(C)[C@@H]1C[C@H]3OC(=O)[C@H](OC(=O)/C=C(\C)C(C)C)[C@@H]24`, where the note is “dose: 0.5 mg/kg/injection, schedule: Q01DX010 (sc), vehicle: saline + alcohol”, the T/C is 35 % of control.

`Cc1c(-c2ccc(-c3ccccc3F)cc2)nc2ccc(F)cc2c1C(=O)O`: the T/C runs as follows: (dose: 12.5 mg/kg/injection, schedule: Q01DX010 (ip), vehicle: water) 59 % of control; (dose: 53.3 mg/kg/injection, schedule: Q01DX009 (ip), vehicle: water) 30 % of control.

For the compound `O=C1OC(C(O)CO)C(O)=C1O` (stereo not given), the T/C reads like this: under setting [3], 113 % of control; (dose: 800.0 mg/kg/injection, schedule: Q01DX010 (sc), vehicle: saline) 167 % of control.

As to `CN(C)c1nc(N(C)C)nc(N(C)C)n1`, the T/C was 99 % of control (dose: 12.5 mg/kg/injection, schedule: Q01DX010 (sc), vehicle: saline with Tween-80); 79 % of control under setting [1]; 72 % of control under setting [2].

On to `O=C(O)C1(NO)CCCCC1`, for which the T/C (dose: 200.0 mg/kg/injection, schedule: Q04DX004 (sc), vehicle: Klucel (hydroxypropylcellulose) (HPC)) was 168 % of control; the T/C (dose: 400.0 mg/kg/injection, schedule: Q04DX004 (sc), vehicle: Klucel (hydroxypropylcellulose) (HPC)) was 122 % of control; the T/C (dose: 1600.0 mg/kg/injection, schedule: Q04DX004 (sc), vehicle: Klucel (hydroxypropylcellulose) (HPC)) was 92 % of control.

Consider `c1ccc2c(c1)-c1ccccc1C1NC21` (stereo not given), for which, under “dose: 75.0 mg/kg/injection, schedule: Q04DX004 (sc), vehicle: saline with Tween-80”, the T/C is 41 % of control.

For `OCC(O)C(O)C(O)C(O)CO` (stereo not given), the T/C is 104 % of control (dose: 75.0 mg/kg/injection, schedule: Q04DX004 (ip), vehicle: saline); 115 % of control under setting [4]; 82 % of control (dose: 300.0 mg/kg/injection, schedule: Q04DX004 (ip), vehicle: saline); 90 % of control (dose: 600.0 mg/kg/injection, schedule: Q04DX004 (ip), vehicle: saline).

On to `O=C(O)CP(=O)(O)O`, for which the T/C by setting is: (dose: 600.0 mg/kg/injection, schedule: Q04DX004 (sc), vehicle: saline) 51 % of control; (dose: 1200.0 mg/kg/injection, schedule: Q04DX004 (sc), vehicle: saline) 118 % of control; (dose: 2400.0 mg/kg/injection, schedule: Q04DX004 (sc), vehicle: saline) 34 % of control.

For the compound `CS(=O)(=O)c1ncc(Br)cn1`, the T/C reads like this: (dose: 25.0 mg/kg/injection, schedule: Q01DX010 (sc), vehicle: saline with Tween-80) 106 % of control; under setting [1], 123 % of control; under setting [2], 185 % of control.

For the compound `CO[C@@]12[C@H](COC(N)=O)C3=C(C(=O)C(C)=C(N)C3=O)N1C[C@@H]1N[C@@H]12`, the T/C by setting is: (dose: 1.5 mg/kg/injection, schedule: Q04DX004 (sc), vehicle: saline) 47 % of control and 52 % of control and 71 % of control; (dose: 3.0 mg/kg/injection, schedule: Q04DX004 (sc), vehicle: saline) -35 % of control and -23 % of control and -13 % of control; (dose: 6.0 mg/kg/injection, schedule: Q04DX004 (sc), vehicle: saline) -86 % of control.

Turning to `CN(C)/N=N/c1nc[nH]c1C(N)=O`, the T/C runs as follows: (dose: 100.0 mg/kg/injection, schedule: Q04DX004 (ip), vehicle: saline) 157 % of control; under setting [4], 75 % of control.

Take `O=C(CCCN1CCC(C(O)c2ccc(F)cc2)CC1)c1ccc(F)cc1` (stereo not given): the T/C (dose: 12.5 mg/kg/injection, schedule: Q04DX004 (ip), vehicle: saline with Tween-80) was 52 % of control; the T/C (dose: 25.0 mg/kg/injection, schedule: Q04DX004 (ip), vehicle: saline with Tween-80) was 71 % of control; the T/C (dose: 50.0 mg/kg/injection, schedule: Q04DX004 (ip), vehicle: saline with Tween-80) was 106 % of control; the T/C (dose: 100.0 mg/kg/injection, schedule: Q04DX004 (ip), vehicle: saline with Tween-80) is 43 % of control.

As for `OCCOCCN1CCN(CCCN2c3ccccc3Sc3ccc(C(F)(F)F)cc32)CC1`, the T/C runs as follows: (dose: 12.0 mg/kg/injection, schedule: Q01DX010 (sc), vehicle: saline) 23 % of control; (dose: 24.0 mg/kg/injection, schedule: Q01DX010 (sc), vehicle: saline) 47 % of control; (dose: 48.0 mg/kg/injection, schedule: Q01DX010 (sc), vehicle: saline) 42 % of control.

Take `CO[C@H]1C[C@](C)(O)Cc2cc3c(c(O)c21)C(=O)c1c(O)cc2c(c1C3=O)O[C@@H]1O[C@@]2(C)[C@H](O)[C@@H](N(C)C)[C@@H]1O`: the T/C reads like this: (dose: 6.25 mg/kg/injection, schedule: Q01DX010 (sc), vehicle: other) 65 % of control; (dose: 12.5 mg/kg/injection, schedule: Q01DX010 (sc), vehicle: other) 76 % of control.

Consider `Cc1cc(NCCCCCCCCNc2cc(C)nc3cc(N(C)C)ccc23)c2ccc(N(C)C)cc2n1`, for which the T/C is 84 % of control (dose: 75.0 mg/kg/injection, schedule: Q04DX004 (sc), vehicle: distilled water + Tween-80 + alcohol); 62 % of control (dose: 150.0 mg/kg/injection, schedule: Q04DX004 (sc), vehicle: distilled water + Tween-80 + alcohol); 85 % of control (dose: 300.0 mg/kg/injection, schedule: Q04DX004 (sc), vehicle: distilled water + Tween-80 + alcohol); 35 % of control (dose: 600.0 mg/kg/injection, schedule: Q04DX004 (sc), vehicle: distilled water + Tween-80 + alcohol).

For `CN(CO)c1nc(N(C)CO)nc(N(C)CO)n1`, the T/C is 100 % of control (dose: 6.25 mg/kg/injection, schedule: Q01DX010 (sc), vehicle: saline); 92 % of control (dose: 25.0 mg/kg/injection, schedule: Q01DX010 (sc), vehicle: saline); 6 % of control under setting [5].

`CN(C)N=Nc1ccc(S(N)(=O)=O)cc1`: the T/C was 81 % of control (dose: 100.0 mg/kg/injection, schedule: Q01DX010 (sc), vehicle: Klucel (hydroxypropylcellulose) (HPC)) and 104 % of control (dose: 200.0 mg/kg/injection, schedule: Q01DX010 (sc), vehicle: Klucel (hydroxypropylcellulose) (HPC)).

On to `COc1cc(C)c2c(c1C=O)Oc1c(c(C)c(O)c3c1C(O)OC3=O)OC2=O` (stereo not given), for which the T/C was 42 % of control (dose: 50.0 mg/kg/injection, schedule: Q01DX010 (sc), vehicle: saline); 81 % of control under setting [5]; 38 % of control under setting [3].

For the origin of these results see PubChem BioAssay AID208 (DTP/NCI, 2004).
